Reference: patent US8545884B2, “Solid pharmaceutical formulations comprising BIBW 2992” (Boehringer Ingelheim International GmbH, priority 2008, dated 2013)

Experiments:
[1] = Tablet content uniformity (RSD) before and after roller compaction and sieving; format: physicochemical; conditions: roller compaction, Sieve A
[2] = Chemical stability of the API against moisture / wet granulation; format: physicochemical
[3] = Bulk densities (poured, tapped; Ph. Eur. 2.9.15) and Hausner factor of powders; format: physicochemical; conditions: for Hausner Factor (ρT/ρP) / Poured density (ρP) / Tapped density (ρT): un-milled drug substance
Protocol: Bulk density is measured according to Ph. Eur. 2.9.15 (European Pharmacopoeia, 4. Ed.) as poured density. The tapped density is measured according to Ph. Eur. 2.9.15 (see also Voigt R., Lehrbuch der pharmazeutischen Technologie [Textbook of Pharmaceutical Technology], Verlag Chemie, 5th Edition, page 148). The Hausner factor is a measure for the flowability/compressibility of powders and ideally should be close to 1. […] They range from 0.12 to 0.40 g/mL, caused by different needle lengths (Table 2). The roller compaction step was introduced for densification of the material (see Table 3), which may have • a variability of the poured density between […] (see Table 1) and • a Hausner Factor between 1.05 and 1.61 (see Table 1).

[4] = Phase I pharmacokinetics of BIBW 2992 together with docetaxel in cancer patients; format: in vivo, human (cancer patients); conditions: once daily dosing, visual inspection
[5] = Phase I pharmacokinetics of BIBW 2992 monotherapy in cancer patients with advanced solid tumors; format: in vivo, human (cancer patients)
Protocol: In four Phase I studies in cancer patients with various advanced solid tumors the pharmacokinetik (PK) characteristics of BIBW 2992 were analyzed. Representative for all of the studies and all the tested dose groups (10 to 100 mg) the 40 mg dose group from one trial is being described in more detail. […] BIBW 2992 plasma concentrations increased after oral administration with peak plasma concentrations mostly around 2-5 hours after dosing. Plasma concentrations declined within the next hours (up to 9 h after dosing), displaying a first disposition phase.
The variability (gCV=geometric coefficient of variation) of the plasma concentrations of the active substance at the different time points was 109-159% up to 9 hours after drug administration but 66.9 to 72.9% at later time points (24 hours after drug administration).

[6] = batch 1, roller compaction, Sieve A, Sieve B
[7] = batch 1, roller compaction, Sieve A, Sieve C
[8] = batch 1, roller compaction, Sieve A, no sieving 2
[9] = batch 2, roller compaction, Sieve A, Sieve C
[10] = batch 3, roller compaction, Sieve A, Sieve C
[11] = 10 to 100 mg, qd dosing, single dose and steady state

CN(C)C/C=C/C(=O)Nc1cc2c(Nc3ccc(F)c(Cl)c3)ncnc2cc1O[C@H]1CCOC1.O=C(O)/C=C\C(=O)O.O=C(O)/C=C\C(=O)O [BIBW 2992 MA2]
RSD- Tablet Content (High Dose) ([1]; batch 1, Sieve B): 1.4% | RSD- Tablet Content (Low Dose) ([1]; batch 1, Sieve B): 3.6% | RSD- Tablet Content (High Dose) ([1]; batch 1, Sieve C): 1.0% | RSD- Tablet Content (Low Dose) ([1]; batch 1, Sieve C): 1.4% | RSD- Tablet Content (High Dose) ([1]; batch 1, no sieving 2): 3.4% | RSD- Tablet Content (Low Dose) ([1]; batch 1, no sieving 2): 7.7% | RSD- Tablet Content (High Dose) ([1]; batch 2, Sieve C): 0.8% | RSD- Tablet Content (High Dose) ([1]; batch 3, Sieve C): 1.7% | chemical stability against moisture ([2]; drug substance as described in WO 2005/037824): susceptibility against moisture | stability during wet granulation ([2]; wet granulation processing): underwent hydrolytical decomposition and further degradation reaction | Poured density ([3]; Table 3, drug substance batch 1, before processing): 0.12 g/mL | Poured density ([3]; Table 3, drug substance batch 2, before processing): 0.31 g/mL | Poured density ([3]; Table 3, drug substance batch 3, before processing): 0.40 g/mL | Poured density of Final Blend ([3]; batch 1, no roller compaction, no sieving): 0.40 g/mL | Poured density of Compacted Intermediate of BIBW 2992 MA2 [3, 6]: 0.29 g/mL | Poured density of Final Blend [3, 6]: 0.53 g/mL | Poured density of Compacted Intermediate of BIBW 2992 MA2 [3, 7]: 0.24 g/mL | Poured density of Final Blend [3, 7]: 0.53 g/mL | Poured density of Compacted Intermediate of BIBW 2992 MA2 [3, 8]: 0.33 g/mL | Poured density of Final Blend [3, 8]: 0.56 g/mL | Poured density of Compacted Intermediate of BIBW 2992 MA2 [3, 9]: 0.41 g/mL | Poured density of Final Blend [3, 9]: 0.60 g/mL | Poured density of Compacted Intermediate of BIBW 2992 MA2 [3, 10]: 0.36 g/mL | Poured density of Final Blend [3, 10]: 0.60 g/mL | Hausner Factor (ρT/ρP) ([3]; batch 0): 1.20 | Poured density (ρP) ([3]; batch 0): 0.23 g/mL | Tapped density (ρT) ([3]; batch 0): 0.28 g/mL | Hausner Factor (ρT/ρP) ([3]; batch 1): 1.33 | Poured density (ρP) ([3]; batch 1): 0.12 g/mL | Tapped density (ρT) ([3]; batch 1): 0.16 g/mL | Hausner Factor (ρT/ρP) ([3]; batch 2): 1.08 | Poured density (ρP) ([3]; batch 2): 0.40 g/mL | Tapped density (ρT) ([3]; batch 2): 0.43 g/mL | Hausner Factor (ρT/ρP) ([3]; batch 3): 1.26 | Poured density (ρP) ([3]; batch 3): 0.31 g/mL | Tapped density (ρT) ([3]; batch 3): 0.39 g/mL

CN(C)C/C=C/C(=O)Nc1cc2c(Nc3ccc(F)c(Cl)c3)ncnc2cc1O[C@H]1CCOC1 [BIBW 2992, 4-[(3-chloro-4-fluorophenyl)amino]-6-{[4-(N,N-dimethylamino)-1-oxo-2-buten-1-yl]amino}-7-((S)-tetrahydrofuran-3-yloxy)-quinazoline]
AUC and Cmax dose dependence [4]: no sign for a deviation from a dose proportional increase | variability (gCV) of the plasma concentrations ([5]; 40 mg dose group, n=17, time points up to 9 hours after drug administration): 109-159% | disposition kinetics ([5]; 40 mg once daily oral, day 27 of Treatment Period 1): at least biexponential disposition kinetics | time of peak plasma concentrations after dosing ([5]; 40 mg once daily oral, day 27 of Treatment Period 1, n=17): 2 to 5 h | gMean AUCτ,ss dose dependence [5, 11]: increased in a dose-proportional manner | gMean Cmax,ss dose dependence [5, 11]: increased in a dose-proportional manner | Cpre,ss (plasma concentration before drug administration at steady state) dose dependence ([5]; various clinical trials, visual inspection, data not shown): no deviation from dose-proportionality
